In patent US20240083857A1, “2-Methyl-Quinazolines” (Bayer Pharma Aktiengesellschaft, priority 2017, published 2024) one finds IC50 data, which are given here for 31 compounds.

For assay [1], the target named is K-Ras^G12C : hSOS1 interaction (Homo sapiens, UniProt Q07889). In words: Biochemical assay 1: K-Ras^G12C interaction assay with hSOS1 (HTRF). It is filed as binding. To be noted: read-out: Assay 1 (KRAS-SOS Interaction) activity expressed as IC50.
The target of assay [2] is Epidermal Growth Factor Receptor (EGFR) (Homo sapiens (Human), UniProt P00533). The experiment in a line: EGFR kinase assay (TR-FRET). Particulars: read-out: EGFR kinase inhibition IC50. It is filed as biochemical. The procedure, abridged:
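Read-out is the 665/620 nm HTRF ratio, from a Tb-cryptate anti-phosphotyrosine antibody and streptavidin-XL665 bound to phosphorylated biotin-peptide substrate. The enzyme, A431-derived EGFR (~3 U/ml), was given 15 min compound pre-binding at 22° C in Hepes pH 7.0 with Mg2+/Mn2+ before reaction.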

Like-named read-outs stand apart in the source and are kept apart here.

Epidermal Growth Factor Receptor (EGFR), sequence (P00533 25-1210): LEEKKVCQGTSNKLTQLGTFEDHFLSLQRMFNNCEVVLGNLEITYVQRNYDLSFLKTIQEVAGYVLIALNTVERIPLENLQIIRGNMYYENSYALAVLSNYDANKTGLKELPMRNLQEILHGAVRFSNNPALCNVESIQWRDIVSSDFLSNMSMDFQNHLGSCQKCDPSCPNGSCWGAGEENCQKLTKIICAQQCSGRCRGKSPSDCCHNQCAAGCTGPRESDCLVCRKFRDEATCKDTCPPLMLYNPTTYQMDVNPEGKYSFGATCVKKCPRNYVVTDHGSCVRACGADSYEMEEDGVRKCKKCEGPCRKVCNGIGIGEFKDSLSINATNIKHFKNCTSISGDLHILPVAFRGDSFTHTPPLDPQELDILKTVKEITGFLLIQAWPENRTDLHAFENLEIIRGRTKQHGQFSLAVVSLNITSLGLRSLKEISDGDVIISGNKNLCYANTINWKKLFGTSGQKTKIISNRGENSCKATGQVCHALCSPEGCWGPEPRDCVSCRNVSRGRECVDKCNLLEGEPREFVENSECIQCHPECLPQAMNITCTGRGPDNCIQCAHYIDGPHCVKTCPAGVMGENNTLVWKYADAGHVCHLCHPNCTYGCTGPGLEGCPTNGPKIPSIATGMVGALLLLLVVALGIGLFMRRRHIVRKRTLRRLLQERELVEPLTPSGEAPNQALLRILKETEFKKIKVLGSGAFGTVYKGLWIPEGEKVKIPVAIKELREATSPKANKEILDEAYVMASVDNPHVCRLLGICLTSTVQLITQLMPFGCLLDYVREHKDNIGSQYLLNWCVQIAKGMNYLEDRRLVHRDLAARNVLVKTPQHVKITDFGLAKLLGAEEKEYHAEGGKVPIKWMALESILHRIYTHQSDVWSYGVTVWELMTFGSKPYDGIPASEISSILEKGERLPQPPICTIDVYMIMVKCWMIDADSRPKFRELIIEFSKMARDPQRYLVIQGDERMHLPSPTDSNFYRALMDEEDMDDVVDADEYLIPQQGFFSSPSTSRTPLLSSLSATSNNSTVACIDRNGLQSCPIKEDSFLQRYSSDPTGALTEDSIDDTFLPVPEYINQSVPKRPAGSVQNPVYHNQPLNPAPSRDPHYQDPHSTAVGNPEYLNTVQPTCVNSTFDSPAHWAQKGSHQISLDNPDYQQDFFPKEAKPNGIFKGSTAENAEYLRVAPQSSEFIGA

As usually defined, the IC50 is the concentration needed to halve the response being measured. `COc1cc2nc(C)nc(N[C@H](C)c3ccc(C4CC4)cc3)c2cc1OC` [Example 197, N-[(1R)-1-(4-cyclopropylphenyl)ethyl]-6,7-dimethoxy-2-methylquinazolin-4-amine]: the IC50 in assay [1] is 0.268 µM; in assay [2] (values given in μM), over 20 µM.
For `COc1cc2nc(C)nc(N[C@H](C)c3cccc(S(C)(=O)=O)c3)c2cc1OC` [Example 198, 6,7-dimethoxy-2-methyl-N-{(1R)-1-[3-(methylsulfonyl)phenyl]ethyl}quinazolin-4-amine], the results for the half-maximal inhibitory concentration (IC50) in assay [1] and in assay [2] (values given in μM) were 0.291 µM and over 20 µM, respectively.
The corresponding values for `COc1cc2nc(C)nc(N[C@H](C)c3cccc(C(N)=O)c3)c2cc1OC` [Example 199, 3-{(1R)-1-[(6,7-dimethoxy-2-methylquinazolin-4-yl)amino]ethyl}benzamide] are 1.73 µM and over 20 µM.
For `COc1cc2nc(C)nc(N[C@H](C)c3ccc(C4=CCN(C)CC4)cc3)c2cc1OC` [Example 201, 6,7-dimethoxy-2-methyl-N-{(1R)-1-[4-(1-methyl-1,2,3,6-tetrahydropyridin-4-yl)phenyl]ethyl}quinazolin-4-amine], the figures for the IC50 in assay [1] and in assay [2] (values given in μM) were 19.7 µM and over 20 µM, respectively.
On to `COc1cc2nc(C)nc(N[C@H](C)c3cccc(C4=CCN(C)CC4)c3)c2cc1OC` [Example 202, 6,7-dimethoxy-2-methyl-N-{(1R)-1-[3-(1-methyl-1,2,3,6-tetrahydropyridin-4-yl)phenyl]ethyl}quinazolin-4-amine], for which the results for the IC50 in assay [1] and in assay [2] (values given in μM) were 1.42 µM and over 20 µM, respectively.
Take `C=C(C)c1ccc([C@@H](C)Nc2nc(C)nc3cc(OC)c(OC)cc23)cc1` [Example 203, 6,7-dimethoxy-2-methyl-N-{(1R)-1-[4-(prop-1-en-2-yl)phenyl]ethyl}quinazolin-4-amine]: the IC50 in assay [1] is 1.37 µM; in assay [2] (values given in μM), over 20 µM.
The corresponding values for `COc1cc2nc(C)nc(N[C@H](C)c3cccc(C4CC4)c3)c2cc1OC` [Example 204, N-[(1R)-1-(3-cyclopropylphenyl)ethyl]-6,7-dimethoxy-2-methylquinazolin-4-amine] are 0.229 µM and over 20 µM.
The corresponding values for `COc1cc2nc(C)nc(NC(C)c3cccc4sccc34)c2cc1OC` (centres unmarked) [Example 205, N-[1-(1-benzothiophen-4-yl)ethyl]-6,7-dimethoxy-2-methylquinazolin-4-amine] are 0.0738 µM and over 20 µM.
The like results for `COc1cc2nc(C)nc(N[C@H](C)c3ccccc3)c2cc1OC` [Example 206, 6,7-dimethoxy-2-methyl-N-[(1R)-1-phenylethyl]quinazolin-4-amine] were, in that order, 0.481 µM and over 20 µM.
As for `COc1cc2nc(C)nc(NC(C)c3cccs3)c2cc1OC` (centres unmarked) [Example 207, 6,7-dimethoxy-2-methyl-N-[1-(thiophen-2-yl)ethyl]quinazolin-4-amine], the concentration for half-maximal inhibition (IC50) in assay [1] was 2.73 µM; in assay [2] (values given in μM) it was over 20 µM.
Consider `COc1cc2nc(C)nc(NC(C)c3ccc(-c4ccccc4CN4CCC(O)C4)s3)c2cc1OC` (centres unmarked) [Example 210, 1-[2-(5-{1-[(6,7-dimethoxy-2-methylquinazolin-4-yl)amino]ethyl}thiophen-2-yl)benzyl]pyrrolidin-3-ol], for which the results for the IC50 in assay [1] and in assay [2] (values given in μM) were 0.0385 µM and over 20 µM, respectively.
The like results for `COc1cc2nc(C)nc(NC(C)c3ccc(-c4ccccc4CN4CC[C@H](F)C4)s3)c2cc1OC` (stereo partly drawn) [Example 211, N-{1-[5-(2-{[(3S)-3-fluoropyrrolidin-1-yl]methyl}phenyl)thiophen-2-yl]ethyl}-6,7-dimethoxy-2-methylquinazolin-4-amine] were, in that order, 0.133 µM and over 20 µM.
The corresponding values for `COc1cc2nc(C)nc(NC(C)c3ccc(-c4ccccc4)o3)c2cc1OC` (centres unmarked) [Example 213, 6,7-dimethoxy-2-methyl-N-[1-(5-phenylfuran-2-yl)ethyl]quinazolin-4-amine] are 6.76 µM and over 20 µM.
The corresponding values for `COc1cc2nc(C)nc(NC(C)c3cc(Br)cc4c3OCC4)c2cc1OC` (centres unmarked) [Example 214, N-[1-(5-bromo-2,3-dihydro-1-benzofuran-7-yl)ethyl]-6,7-dimethoxy-2-methylquinazolin-4-amine] are 3.33 µM and over 20 µM.
`COc1cc2nc(C)nc(NC(C)c3cccc(Oc4ccccc4)c3)c2cc1OC` (centres unmarked) [Example 215, 6,7-dimethoxy-2-methyl-N-[1-(3-phenoxyphenyl)ethyl]quinazolin-4-amine]: the IC50 in assay [1] was found to be 0.906 µM; in assay [2] (unit inferred), 2.57 µM.
Consider `COc1cc2nc(C)nc(NC(C)c3cccc(-c4nn[nH]n4)c3)c2cc1OC` (centres unmarked) [Example 216, 6,7-dimethoxy-2-methyl-N-{1-[3-(2H-tetrazol-5-yl)phenyl]ethyl}quinazolin-4-amine], for which the IC50 in assay [1] was 6.58 µM; in assay [2] (values given in μM), over 20 µM.
The like results for `COc1cc2nc(C)nc(NC(C)c3cccc4cccnc34)c2cc1OC` (centres unmarked) [Example 217, 6,7-dimethoxy-2-methyl-N-[1-(quinolin-8-yl)ethyl]quinazolin-4-amine] were, in that order, 8.8 µM and over 20 µM.
The like results for `COc1cc2nc(C)nc(NC(C)c3ccc(-c4cnn(CCO)c4)s3)c2cc1OC` (centres unmarked) [Example 218, 2-[4-(5-{1-[(6,7-dimethoxy-2-methylquinazolin-4-yl)amino]ethyl}thiophen-2-yl)-1H-pyrazol-1-yl]ethanol] were, in that order, 1.96 µM and over 20 µM.
The corresponding values for `COc1cc2nc(C)nc(NC(C)c3ccc(-c4cnc5n4CCC5)s3)c2cc1OC` (centres unmarked) [Example 219, N-{1-[5-(6,7-dihydro-5H-pyrrolo[1,2-a]imidazol-3-yl)thiophen-2-yl]ethyl}-6,7-dimethoxy-2-methylquinazolin-4-amine] are 0.415 µM and over 20 µM.
Regarding `COc1cc2nc(C)nc(NC(C)c3ccc(-c4cnn(CCN5CCCC5)c4)s3)c2cc1OC` (centres unmarked) [Example 220, 6,7-dimethoxy-2-methyl-N-[1-(5-{1-[2-(pyrrolidin-1-yl)ethyl]-1H-pyrazol-4-yl}thiophen-2-yl)ethyl]quinazolin-4-amine], the IC50 in assay [1] was 0.379 µM; in assay [2] (values given in μM), over 20 µM.
The like results for `COc1cc2nc(C)nc(NC(C)c3ccc(-c4cnn(C5CCCC5)c4)s3)c2cc1OC` (centres unmarked) [Example 221, N-{1-[5-(1-cyclopentyl-1H-pyrazol-4-yl)thiophen-2-yl]ethyl}-6,7-dimethoxy-2-methylquinazolin-4-amine] were, in that order, 3.06 µM and over 20 µM.
In the case of `COc1cc2nc(C)nc(NC(C)c3ccc(-c4cc[nH]n4)s3)c2cc1OC` (centres unmarked) [Example 222, 6,7-dimethoxy-2-methyl-N-{1-[5-(1H-pyrazol-3-yl)thiophen-2-yl]ethyl}quinazolin-4-amine], the IC50 is 3.88 µM in assay [1] and over 20 µM in assay [2] (values given in μM).
The corresponding values for `COc1cc2nc(C)nc(NC(C)c3ccc(-c4ccccc4CN4CCC(F)(F)C4)s3)c2cc1OC` (centres unmarked) [Example 223, N-[1-(5-{2-[(3,3-difluoropyrrolidin-1-yl)methyl]phenyl}thiophen-2-yl)ethyl]-6,7-dimethoxy-2-methylquinazolin-4-amine] are 2.11 µM and over 20 µM.
For the compound `COc1cc2nc(C)nc(NC(C)c3ccc4nsnc4c3)c2cc1OC` (centres unmarked) [Example 229, N-[1-(2,1,3-benzothiadiazol-5-yl)ethyl]-6,7-dimethoxy-2-methylquinazolin-4-amine], the IC50 in assay [1] is 6.95 µM; in assay [2] (values given in μM) it was over 20 µM.
With `CCOc1ccccc1-c1ccc(C(C)Nc2nc(C)nc3cc(OC)c(OC)cc23)s1` (centres unmarked) [Example 232, N-{1-[5-(2-ethoxyphenyl)thiophen-2-yl]ethyl}-6,7-dimethoxy-2-methylquinazolin-4-amine], the IC50 in assay [1] is 9.01 µM; in assay [2] (values given in μM), over 20 µM.
The corresponding values for `COc1cc2nc(C)nc(NC(C)c3ccc(-c4ccc(F)c5ccccc45)s3)c2cc1OC` (centres unmarked) [Example 233, N-{1-[5-(4-fluoronaphthalen-1-yl)thiophen-2-yl]ethyl}-6,7-dimethoxy-2-methylquinazolin-4-amine] are 10.4 µM and over 20 µM.
For the compound `COc1cc2nc(C)nc(NC(C)c3ccc(-c4ccc(F)cc4CN)s3)c2cc1OC` (centres unmarked) [Example 234, N-[1-{5-[2-(aminomethyl)-4-fluorophenyl]thiophen-2-yl}ethyl]-6,7-dimethoxy-2-methylquinazolin-4-amine], the results for the IC50 in assay [1] and in assay [2] (values given in μM) were 0.0756 µM and over 20 µM, respectively.
The corresponding values for `COc1cc2nc(C)nc(NC(C)c3ccc(C4=CCOCC4)s3)c2cc1OC` (centres unmarked) [Example 235, N-{1-[5-(3,6-dihydro-2H-pyran-4-yl)thiophen-2-yl]ethyl}-6,7-dimethoxy-2-methylquinazolin-4-amine] are 5.47 µM and over 20 µM.
The corresponding values for `COc1cc2nc(C)nc(NC(C)c3ccc(-c4ccccc4CN4CCC(N(C)C)C4)s3)c2cc1OC` (centres unmarked) [Example 238, N-{1-[5-(2-{[3-(dimethylamino)pyrrolidin-1-yl]methyl}phenyl)thiophen-2-yl]ethyl}-6,7-dimethoxy-2-methylquinazolin-4-amine] are 0.0816 µM and over 20 µM.
The like results for `COc1cc2nc(C)nc(NC(C)c3csc(Br)c3)c2cc1OC` (centres unmarked) [Example 239, N-[1-(5-bromothiophen-3-yl)ethyl]-6,7-dimethoxy-2-methylquinazolin-4-amine] were, in that order, 7.07 µM and over 20 µM.
Take `COc1cc2nc(C)nc(NC(C)c3ccc(-c4ccccc4C(N)=O)s3)c2cc1OC` (centres unmarked) [Example 240, 2-(5-{1-[(6,7-dimethoxy-2-methylquinazolin-4-yl)amino]ethyl}thiophen-2-yl)benzamide]: the IC50 is 3.21 µM in assay [1] and over 20 µM in assay [2] (values given in μM).
